Measured values as given in publication PMC8994274, “A proteolysis-targeting chimera molecule selectively degrades ENL and inhibits malignant gene expression and tumor growth” (Journal of Hematology & Oncology, 2022).

How the values were obtained:
[1] = system: blood and solid tumor cells; test: Antiproliferation assay, ranges given over several cell lines; type: cell-based; conditions: AML Kasumi-1, myeloma RPMI-8226 and U266; read-out: EC50 against Kasumi-1, RPMI-8226 and U266 cells (range over cell lines)
Description: (§1) Proliferation inhibition assays for suspension blood cancer cells were performed using an XTT assay kit (Biotium), following our previous methods [22]. EC50 values were determined using Prism 5 and from at least three independent experiments.

[2] = biological target: T1, AF9 YEATS (Homo sapiens, UniProt P42568); test: ALPHA assay, inhibition of the AF9 YEATS-H3K27ac interaction
T1 sequence (P42568 1-138 limits assumed): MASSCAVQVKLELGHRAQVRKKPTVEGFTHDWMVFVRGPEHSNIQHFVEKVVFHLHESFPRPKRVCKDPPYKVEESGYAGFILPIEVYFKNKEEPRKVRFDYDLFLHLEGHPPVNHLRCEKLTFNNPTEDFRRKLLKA
Description: AlphaScreen binding assay was developed using Perkin-Elmer AlphaScreen Histidine (Nickel Chelate) Detection Kit, following a reported protocol [39]. Data were imported into Prism (version 5.0), and IC50 values from 3 independent experiments with standard deviation were obtained by using a standard dose–response curve fitting.

[3] = system: Panc1 cells; test: Antiproliferation assay, Panc1; conditions: Homo sapiens, PANC-1, 168 h, read-out: Antiproliferative activity, EC50, Panc1
[4] = system: MV4;11 cells; test: Antiproliferation assay (XTT), MV4;11; conditions: Homo sapiens, MV4-11, 168 h, read-out: EC50 against proliferation of MV4;11 cells
Description: as §1

[5] = biological target: T2, ENL (Homo sapiens, UniProt Q03111); test: ENL in nucleus and cytoplasm of MV4;11 cells (Western blot); type: cell-based; design: endogenous in cells; host or cells: MV4;11; conditions: 4 days
T2 sequence (Q03111 1-559): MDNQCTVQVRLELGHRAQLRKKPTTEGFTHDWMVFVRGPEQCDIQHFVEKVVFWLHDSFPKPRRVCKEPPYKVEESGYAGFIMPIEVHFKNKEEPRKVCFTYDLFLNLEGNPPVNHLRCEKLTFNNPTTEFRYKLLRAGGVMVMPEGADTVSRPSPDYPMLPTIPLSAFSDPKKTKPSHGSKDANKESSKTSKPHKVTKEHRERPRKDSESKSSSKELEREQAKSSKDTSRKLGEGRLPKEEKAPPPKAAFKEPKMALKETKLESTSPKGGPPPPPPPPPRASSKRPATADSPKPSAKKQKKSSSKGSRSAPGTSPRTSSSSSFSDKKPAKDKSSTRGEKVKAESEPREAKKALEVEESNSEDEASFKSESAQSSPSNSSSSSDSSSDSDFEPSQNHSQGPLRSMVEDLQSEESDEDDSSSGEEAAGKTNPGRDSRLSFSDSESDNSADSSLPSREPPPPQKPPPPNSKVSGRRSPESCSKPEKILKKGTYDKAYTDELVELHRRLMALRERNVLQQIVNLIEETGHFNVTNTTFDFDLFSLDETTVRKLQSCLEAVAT
Description: Upon treatment of MV4;11 cells with these compounds for 4 days, cytoplasmic and nuclear proteins were separated and subjected to SDS-PAGE/Western blot.
3 × 10^6 cells/well were treated with increasing concentrations of a compound for 1 day, and whole proteins were extracted. Equal amounts of proteins were separated on SDS-PAGE and transferred to PVDF membranes. The blots were probed with primary antibodies, followed by anti-rabbit IgG (Thermo Scientific) secondary antibodies.

[6] = system: HoxA9, Meis1 and Myc; test: qPCR expression of HoxA9, Meis1 and Myc in Molm-13 cells; type: cell-based; conditions: 4 days
Description: Previous studies show ENL is required for expression of MLL1-target genes in MLL1-r leukemia. How compound 1-mediated ENL degradation changes expression of HoxA9, Meis1 and Myc, three characteristic genes in MLL1-r leukemia, was examined. Molm-13 cells were treated with compound 1 for 4 days, after which the RNAs were extracted and analyzed.
10^5 cells/mL were incubated with a compound for 4 days and the RNA was extracted using RNeasy mini kit (#74104, Qiagen). 100–1000 ng of total RNA was reverse transcribed using iScript™ Reverse Transcription Supermix (Bio-Rad) using the manufacturer’s protocol. Quantitative real-time PCR was carried out using Fast SYBR Green Master Mix (Applied Biosystems) according to the manufacturer’s instructions. Measurements were performed in triplicate, using GAPDH as the reference gene. Real-time PCR was performed using Biosystems Step One Plus detection system. The following sequences of primers are used: • MYC (forward: 5′-[…]-3′; reverse: 5′-[…]-3′); • HoxA9 (forward: 5′-[…]-3′; reverse: 5′-[…]-3′); • Meis1 (forward: 5′-[…]-3′; reverse: 5′-[…]-3′); • GAPDH (forward: 5′-[…]-3′; reverse: 5′-[…]-3′).

[7] = biological target: T2, ENL; test: ENL degradation in Molm-13 cells (Western blot); type: cell-based; design: endogenous in cells; conditions: MOLM-13, Molm-13 cells, 24 h
Description: In addition, compound 1 efficiently degraded ENL in another MLL1-r leukemia Molm-13 cells (with MLL1-AF9) with DC50 of 47 nM and Dmax of ~ 88% (Fig. 3e). Moreover, significant ENL degradation can be detected in 2 h and depletion occurred within 24 h (Fig. 3f).
3 × 10^6 cells/well were treated with increasing concentrations of a compound for 1 day, and whole proteins were extracted. Equal amounts of proteins were separated on SDS-PAGE and transferred to PVDF membranes. The blots were probed with primary antibodies, followed by anti-rabbit IgG (Thermo Scientific) secondary antibodies. The primary antibodies against ENL (Cell signaling #14893), AF9 (Novusbio #NB100-1565), DOT1L (Cell signaling #77087), AFF4 (Abcam #ab103586), Cyclin T1 (Cell signaling #81464), H3K79me2 (Cell signaling #5427), H3K79me1 (Cell signaling #9398), Histone H3 (Cell signaling #4499), FLAG (Sigma-Aldrich #F1804), β-Actin (Cell signaling #4970) were used in this study.

[8] = system: AF9, AFF4, cyclin-T1 and H3K79me2; test: ChIP-qPCR, AF9, AFF4, cyclin-T1 and H3K79me2 at gene promoters of Myc and HoxA9; type: cell-based; conditions: MV4;11 cells, 500 nM, 4 days
Description: Chromatin immunoprecipitation (ChIP) followed by qPCR was used to further probe the activity of compound 1 in the gene promoters of Myc and HoxA9, two characteristic MLL1 target genes.
Upon treatment with a compound for 4 days, 10^7 MV4;11 cells were cross-linked with 1% formaldehyde at room temperature for 10 min, followed by the addition of 125 mM glycine. Cells were lysed with nuclear lysis buffer and sonicated to ~ 100–1000 bp fragments, which was incubated at 4 °C overnight with an antibody and IgG (C15410206, Diagenode). Protein A/G Magnetic Beads (10 µL, Novus Biologicals) were added and incubated for 2 h. The beads were washed 3 × with RIPA buffer and 2 × with TE buffer. DNA on the beads was eluted for 2 h at 68 °C in 100 μL of an elution buffer (20 mM Tris pH 7.5, 5 mM EDTA, 50 mM NaCl, 1% SDS, 50 μg/mL proteinase K) (2 ×), and purified using a ChIP DNA Clean & Concentrator kit (Novus Biologicals). qPCR was done using the method described above.

Compound `C[C@H]1CCCN1Cc1nc2cc(NC(=O)c3ccc4c(cnn4CCCCCCCCNc4cccc5c4C(=O)N(C4CCC(=O)NC4=O)C5=O)c3)ccc2[nH]1` (stereo partly drawn) [Compound 1] has an EC50 [1] of 1100 to 4100 nM, an IC50 [2] of 750 ± 15 nM and an EC50 [3] of over 50000 nM. The EC50 [4] was 570 nM, the “ENL level in the cytoplasmic extract” value [5] was “significantly reduced” and the “ENL level in the nucleus” value ([5]; compound 1 at 500 nM) was “almost depleted”. The “Expression of HoxA9, Meis1 and Myc” value [6] was “significantly inhibit expression”, the Dmax [7] was 88% and the “AF9, AFF4, cyclin-T1 and H3K79me2 at gene promoters of Myc and HoxA9” value [8] was “did not significantly lower down”.
